From ChEMBL document CHEMBL4699525, “Design and synthesis of new indanol-1,2,3-triazole derivatives as potent antitubercular and antimicrobial agents” (Bioorg Med Chem Lett, 2020)
≈ marks a conversion by molar mass, not a printed value.

Legend:
Pseudomonas aeruginosa = assay: Antibacterial activity against Pseudomonas aeruginosa assessed as inhibition of bacterial growth incubated for 24 hrs by agar well diffusion method; format: functional
Saccharomyces cerevisiae [1] = assay: Antifungal activity against Saccharomyces cerevisiae assessed as inhibition of […] growth incubated for overnight by CLSI based method; format: functional
[2] = test system: Salmonella enterica subsp. enterica serovar Abony; assay: Antibacterial activity against Salmonella abony assessed as inhibition of bacterial growth incubated for 24 hrs by agar well diffusion method; format: functional
Staphylococcus aureus [3] = assay: Antibacterial activity against Staphylococcus aureus assessed as inhibition of bacterial growth incubated for 24 hrs by agar well diffusion method; format: functional
Staphylococcus aureus [4] = assay: Antibacterial activity against Staphylococcus aureus assessed as inhibition of bacterial growth incubated for overnight by CLSI based method; format: functional
Candida albicans [5] = assay: Antifungal activity against Candida albicans assessed as inhibition of […] growth incubated for overnight by CLSI based method; format: functional
Shigella boydii [6] = assay: Antibacterial activity against Shigella boydii assessed as inhibition of bacterial growth incubated for overnight by CLSI based method; format: functional
Klebsiella aerogenes [7] = assay: Antibacterial activity against Enterobacter aerogenes assessed as inhibition of bacterial growth incubated for 24 hrs by agar well diffusion method; format: functional
Bacillus cereus = assay: Antibacterial activity against Bacillus cereus assessed as inhibition of bacterial growth incubated for 24 hrs by agar well diffusion method; format: functional
Escherichia coli = assay: Antibacterial activity against Escherichia coli assessed as inhibition of bacterial growth incubated for 24 hrs by agar well diffusion method; format: functional
[8] = biological target: T1, Enoyl-[acyl-carrier-protein] reductase [NADH] (Mycobacterium tuberculosis) (UniProt P9WGR1); assay: Inhibition of InhA in Mycobacterium tuberculosis H37Rv assessed antitubercular activity by measuring inhibition of bacterial growth incubated for 7 days by MABA assay; settings: time 7.0 day
T1 sequence (whole entry): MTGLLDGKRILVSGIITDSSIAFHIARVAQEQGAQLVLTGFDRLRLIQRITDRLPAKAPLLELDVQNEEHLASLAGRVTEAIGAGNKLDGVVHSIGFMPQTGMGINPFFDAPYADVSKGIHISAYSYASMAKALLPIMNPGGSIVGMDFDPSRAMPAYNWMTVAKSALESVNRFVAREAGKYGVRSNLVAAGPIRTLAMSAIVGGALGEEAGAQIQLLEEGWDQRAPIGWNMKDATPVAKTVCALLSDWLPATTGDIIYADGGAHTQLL

Shigella boydii [9] = assay: Antibacterial activity against Shigella boydii assessed as inhibition of bacterial growth incubated for 24 hrs by agar well diffusion method; format: functional
[10] = Cytotoxicity against human HEK293 cells assessed as inhibition of cell growth at 25 uM incubated for 48 hrs by MTT assay; format: cell-based
Klebsiella aerogenes [11] = assay: Antibacterial activity against Enterobacter aerogenes assessed as inhibition of bacterial growth incubated for overnight by CLSI based method; format: functional
Saccharomyces cerevisiae [12] = assay: Antifungal activity against Saccharomyces cerevisiae assessed as inhibition of fungal growth incubated for 24 hrs by agar well diffusion method; format: functional
Salmonella typhi = assay: Antibacterial activity against Salmonella typhi assessed as inhibition of bacterial growth incubated for 24 hrs by agar well diffusion method; format: functional, Salmonella enterica subsp. enterica serovar Typhi
Aspergillus niger [13] = assay: Antifungal activity against Aspergillus niger assessed as inhibition of […] growth incubated for overnight by CLSI based method; format: functional
Aspergillus niger [14] = assay: Antifungal activity against Aspergillus niger assessed as inhibition of fungal growth incubated for 24 hrs by agar well diffusion method; format: functional
Bacillus subtilis = assay: Antibacterial activity against Bacillus subtilis assessed as inhibition of bacterial growth incubated for 24 hrs by agar well diffusion method; format: functional
Candida albicans [15] = assay: Antifungal activity against Candida albicans assessed as inhibition of fungal growth incubated for 24 hrs by agar well diffusion method; format: functional

| SMILES | diameter of the inhibition zone (DIZ) (Pseudomonas aeruginosa) | MIC (Saccharomyces cerevisiae [1]) | diameter of the inhibition zone (DIZ) [2] | diameter of the inhibition zone (DIZ) (Staphylococcus aureus [3]) | MIC (Staphylococcus aureus [4]) | MIC (Candida albicans [5]) | MIC (Shigella boydii [6]) | diameter of the inhibition zone (DIZ) (Klebsiella aerogenes [7]) | diameter of the inhibition zone (DIZ) (Bacillus cereus) | diameter of the inhibition zone (DIZ) (Escherichia coli) | MIC [8] | diameter of the inhibition zone (DIZ) (Shigella boydii [9]) | inhibition at 48 h, 25 µM [10] | MIC (Klebsiella aerogenes [11]) | diameter of the inhibition zone (DIZ) (Saccharomyces cerevisiae [12]) | diameter of the inhibition zone (DIZ) (Salmonella typhi) | MIC (Aspergillus niger [13]) | diameter of the inhibition zone (DIZ) (Aspergillus niger [14]) | diameter of the inhibition zone (DIZ) (Bacillus subtilis) | diameter of the inhibition zone (DIZ) (Candida albicans [15]) |
| --- | --- | --- | --- | --- | --- | --- | --- | --- | --- | --- | --- | --- | --- | --- | --- | --- | --- | --- | --- | --- |
| Brc1ccccc1-n1cc(COc2ccc3c(c2)CCC3)nn1 | 13 mm | 110 µg/mL (≈ 297 µM) | 13 mm | 16 mm | 90 µg/mL (≈ 243 µM) | 130 µg/mL (≈ 351 µM) | 140 µg/mL (≈ 378 µM) | 12 mm | 9 mm | 11 mm | 6.25 µM (≈ 2.31 µg/mL) | 12 mm | 16.5% | 120 µg/mL (≈ 324 µM) | 10 mm | 11 mm | 170 µg/mL (≈ 459 µM) | 7 mm | 10 mm | 9 mm |
| COc1ccc(-n2cc(COc3ccc4c(c3)CCC4)nn2)cc1 | 12 mm | 210 µg/mL (≈ 653 µM) | 12 mm | 8 mm | 160 µg/mL (≈ 498 µM) | 80 µg/mL (≈ 249 µM) | 70 µg/mL (≈ 218 µM) | 9 mm | 5 mm | 10 mm | 25 µM (≈ 8.03 µg/mL) | 11 mm | 21.1% | 130 µg/mL (≈ 405 µM) | 5 mm | 8 mm | 180 µg/mL (≈ 560 µM) | 6 mm | 10 mm | 11 mm |
| COc1ccccc1NC(=O)Cn1cc(COc2ccc3c(c2)CCC3)nn1 | 8 mm | 210 µg/mL (≈ 555 µM) | 11 mm | 12 mm | 120 µg/mL (≈ 317 µM) | 180 µg/mL (≈ 476 µM) | 150 µg/mL (≈ 396 µM) | 13 mm |  | 10 mm | 6.25 µM (≈ 2.37 µg/mL) | 12 mm | 23.4% | 95 µg/mL (≈ 251 µM) | 10 mm | 12 mm | 170 µg/mL (≈ 449 µM) | 10 mm | 10 mm | 12 mm |
| Brc1cccc(-n2cc(COc3ccc4c(c3)CCC4)nn2)c1 | 14 mm | 160 µg/mL (≈ 432 µM) | 14 mm | 19 mm | 100 µg/mL (≈ 270 µM) | 100 µg/mL (≈ 270 µM) | 130 µg/mL (≈ 351 µM) | 16 mm | 10 mm | 15 mm | > 25 µM | 20 mm |  | 150 µg/mL (≈ 405 µM) | 7 mm | 8 mm | 190 µg/mL (≈ 513 µM) | 6 mm | 17 mm | 14 mm |
| O=C(Cn1cc(COc2ccc3c(c2)CCC3)nn1)Nc1ccccc1 | 10 mm | 110 µg/mL (≈ 316 µM) | 11 mm | 23 mm | 140 µg/mL (≈ 402 µM) | 85 µg/mL (≈ 244 µM) | 130 µg/mL (≈ 373 µM) | 16 mm | 12 mm | 11 mm | > 25 µM | 11 mm |  | 80 µg/mL (≈ 230 µM) | 12 mm | 12 mm | 170 µg/mL (≈ 488 µM) | 9 mm | 12 mm | 13 mm |
| Cc1ccc([N+](=O)[O-])cc1-n1cc(COc2ccc3c(c2)CCC3)nn1 | 9 mm | 150 µg/mL (≈ 428 µM) | 9 mm | 13 mm | 50 µg/mL (≈ 143 µM) | 40 µg/mL (≈ 114 µM) | 60 µg/mL (≈ 171 µM) | 11 mm | 12 mm | 11 mm | 12.5 µM (≈ 4.38 µg/mL) | 11 mm | 26.5% | 60 µg/mL (≈ 171 µM) | 6 mm | 11 mm | 155 µg/mL (≈ 442 µM) | 6 mm | 12 mm | 15 mm |
| Cc1ccc(-n2cc(COc3ccc4c(c3)CCC4)nn2)c(C)c1 | 13 mm | 50 µg/mL (≈ 157 µM) | 9 mm | 7 mm | 150 µg/mL (≈ 470 µM) | 60 µg/mL (≈ 188 µM) | 55 µg/mL (≈ 172 µM) | 10 mm | 10 mm | 12 mm | 1.56 µM (≈ 0.498 µg/mL) | 11 mm | 19.9% | 75 µg/mL (≈ 235 µM) | 12 mm | 12 mm | 70 µg/mL (≈ 219 µM) | 10 mm | 10 mm | 11 mm |
